Experimental data taken from patent US20250144067A1, “PERSONALIZED STARVATION THERAPY FOR CANCER” (Faeth Therapeutics, Inc., priority 2021, published 2025).
Counter-ions that a name gives are not always drawn.

Assays:
[1] = tested on: NCI-H292 lung cancer cells; test: FDA drug screening, complete media vs cholesterol-free media without statin (TABLE 1); type: cell-based, human
[2] = tested on: NCI-H292 lung cancer cells; test: FDA drug screening, complete media vs cholesterol-free media with simvastatin (TABLE 2); type: cell-based, human; details: for Cholesterol-free media + simvastatin (0.04 μM) / Complete Media: NCI-H292 cells
[3] = Complete minus Cholesterol-free, […]
[4] = NCI-H292 cells, FDA drug library screen, cholesterol-free media without statin
[5] = NCI-H292 cells, FDA drug library screen, complete media
[6] = Complete minus Cholesterol-free, greater than 0 enhanced anti-cancer activity, about 0 neutral, below 0 antagonists
[7] = NCI-H292 cells in cholesterol-free media without statin
[8] = NCI-H292 cells in complete media
[9] = FDA library drug in cholesterol-free media with simvastatin 0.04 μM
[10] = FDA library drug in complete media
[11] = complete media vs cholesterol-free media + simvastatin (0.04 μM), >0 enhanced anti-cancer activity, about 0 neutral, <0 antagonist
[12] = NCI-H292 cells, cholesterol-free media without statin
[13] = complete media vs cholesterol-free media + simvastatin (0.04 μM), […]
[14] = complete vs cholesterol-free media, greater than 0 enhanced anti-cancer activity, about 0 neutral, below 0 antagonists
[15] = drug in cholesterol-free media with simvastatin 0.04 μM
[16] = Complete minus Cholesterol-free, >0 enhanced anti-cancer activity, about 0 neutral, <0 antagonist
[17] = NCI-H292 cells, cholesterol-free media without statin, FDA drug library screen
[18] = NCI-H292 cells, complete media, FDA drug library screen
[19] = FDA drug library screen, cholesterol-free media with simvastatin 0.04 μM
[20] = complete media minus cholesterol-free media + simvastatin (0.04 μM), >0 enhanced anti-cancer activity, about 0 neutral, <0 antagonist
[21] = Complete minus Cholesterol-free, greater than 0 enhanced anti-cancer activity, about 0 neutral, below 0 antagonist
[22] = FDA drug library screen, complete media
[23] = complete media minus cholesterol-free media + simvastatin, >0 enhanced anti-cancer activity, about 0 neutral, <0 antagonist
[24] = cholesterol-free media with simvastatin 0.04 μM, FDA drug library screen (TABLE 2)
[25] = complete media, FDA drug library screen (TABLE 2)

COc1ccccc1OC(=O)c1ccccc1OC(C)=O [Guacetisal]
Difference [1, 3]: −0.09 | Cholesterol-free [1, 4]: 0.837 | Complete [1, 5]: 0.7434 | Cholesterol-free media + simvastatin (0.04 μM) ([2]; cholesterol-free media with simvastatin 0.04 μM, […]): 1.34 | Complete Media ([2]; complete media, […]): 1.4 | Difference ([2]; complete media minus cholesterol-free media + simvastatin, […]): 0.06

CC#C[C@]1(O)CC[C@H]2[C@@H]3CCC4=CC(=O)CCC4=C3[C@@H](c3ccc(N(C)C)cc3)C[C@@]21C [Mifepristone]
Difference [1, 6]: −0.57 | Cholesterol-free [1, 7]: 1.574 | Complete [1, 8]: 0.9996 | Cholesterol-free media + simvastatin (0.04 μM) [2, 9]: 1.308 | Complete Media [2, 10]: 1.019 | Difference [2, 11]: −0.29

CN(CCCCCCCCCCN(C)C(=O)Oc1cccc([N+](C)(C)C)c1)C(=O)Oc1cccc([N+](C)(C)C)c1 [Demecarium Bromide]
Difference [1, 3]: −0.29 | Cholesterol-free [1, 12]: 1.112 | Complete ([1]; NCI-H292 cells, complete media): 0.8186 | Cholesterol-free media + simvastatin (0.04 μM) [2, 9]: 1.197 | Complete Media [2, 10]: 0.9059 | Difference [2, 13]: −0.29

Bephenium (hydroxynaphthoate)
Complete ([1]; NCI-H292 cells, complete media): 0.7234 | Difference [1, 14]: −0.43 | Cholesterol-free media + simvastatin (0.04 μM) [2, 15]: 1.634 | Complete Media ([2]; drug in complete media): 1.472 | Difference [2, 11]: −0.16

C[N+]1(C)CCC(OC(=O)C(O)(c2ccccc2)C2CCCC2)C1 (stereo not drawn) [Glycopyrrolate]
Difference [1, 16]: 0.02 | Cholesterol-free [1, 17]: 0.8111 | Complete [1, 18]: 0.8296 | Cholesterol-free media + simvastatin (0.04 μM) [2, 19]: 2.314 | Difference [2, 20]: −1.08

CCC(c1ccccc1)c1c(O)c2ccccc2oc1=O (stereo not drawn) [Phenprocoumon]
Cholesterol-free [1, 12]: 1.312 | Complete ([1]; NCI-H292 cells, complete media): 0.8729 | Difference [1, 14]: −0.44 | Cholesterol-free media + simvastatin (0.04 μM) [2, 15]: 1.071 | Complete Media ([2]; drug in complete media): 0.9061 | Difference [2, 11]: −0.16

N=C(N)NC(=O)c1nc(Cl)c(N)nc1N [Amiloride (hydrochloride)]
Difference [1, 21]: −0.17 | Cholesterol-free [1, 4]: 1.642 | Complete [1, 5]: 1.47 | Cholesterol-free media + simvastatin (0.04 μM) [2, 19]: 1.016 | Complete Media [2, 22]: 0.8717 | Difference [2, 11]: −0.14

O=C(N/N=C/c1ccc([N+](=O)[O-])o1)c1ccc(O)cc1 [Nifuroxazide]
Difference [1, 16]: −0.04 | Cholesterol-free [1, 17]: 0.9553 | Complete [1, 18]: 0.9139 | Cholesterol-free media + simvastatin (0.04 μM) ([2]; cholesterol-free media with simvastatin 0.04 μM, cell growth value in FDA drug screen): 1.161 | Complete Media ([2]; complete media, cell growth value in FDA drug screen): 1.265 | Difference [2, 23]: 0.10

CC(C)(C)NCC(O)COc1cccc2c1CC(O)C(O)C2 (stereo not drawn) [Nadolol]
Difference [1, 16]: −0.30 | Cholesterol-free [1, 12]: 1.37 | Complete ([1]; NCI-H292 cells, complete media): 1.069 | Cholesterol-free media + simvastatin (0.04 μM) [2, 9]: 1.308 | Complete Media [2, 10]: 1.014 | Difference [2, 11]: −0.29

CC(C)(C)c1ccc(C(=O)CCCN2CCC(OC(c3ccccc3)c3ccccc3)CC2)cc1 [Ebastine]
Difference [1, 6]: −0.60 | Cholesterol-free [1, 7]: 1.238 | Complete [1, 8]: 0.6382 | Cholesterol-free media + simvastatin (0.04 μM) [2, 19]: 0.2638 | Complete Media [2, 22]: 1.066 | Difference [2, 23]: 0.80

Clc1cccc(Cl)c1N=C1NCCN1 [Clonidine (hydrochloride)]
Difference [1, 21]: −0.12 | Cholesterol-free [1, 4]: 0.9351 | Complete [1, 5]: 0.8162 | Cholesterol-free media + simvastatin (0.04 μM) [2, 19]: 1.083 | Complete Media [2, 22]: 0.9532 | Difference [2, 11]: −0.13

CC(C)C[C@H](NC(=O)[C@@H](O)[C@H](N)Cc1ccccc1)C(=O)O [Bestatin (hydrochloride)]
Cholesterol-free [1, 12]: 1.217 | Complete ([1]; NCI-H292 cells, complete media): 0.9083 | Difference [1, 14]: −0.31 | Cholesterol-free media + simvastatin (0.04 μM) [2, 19]: 1.299 | Difference [2, 11]: −0.15

CCCN(CCC)CCc1cccc2c1CC(=O)N2 [Ropinirole (hydrochloride)]
Cholesterol-free [1, 12]: 1.101 | Complete ([1]; NCI-H292 cells, complete media): 0.7874 | Difference [1, 14]: −0.31 | Cholesterol-free media + simvastatin (0.04 μM) [2, 19]: 0.879 | Complete Media [2, 22]: 1.185 | Difference [2, 23]: 0.31

Cc1onc(-c2c(Cl)cccc2Cl)c1C(=O)N[C@@H]1C(=O)N2[C@@H]1SC(C)(C)[C@@H]2C(=O)O [Dicloxacillin (Sodium hydrate)]
Difference [1, 16]: 0.01 | Cholesterol-free [1, 17]: 0.8462 | Complete [1, 18]: 0.855 | Cholesterol-free media + simvastatin (0.04 μM) [2, 19]: 1.145 | Complete Media [2, 22]: 1.008 | Difference [2, 11]: −0.14

C[N+](C)(C)CCOP(=O)([O-])OP(=O)([O-])OC[C@H]1O[C@@H](n2ccc(N)nc2=O)[C@H](O)[C@@H]1O.[Na+] [Citicoline (sodium)]
Cholesterol-free [1, 12]: 1.151 | Complete ([1]; NCI-H292 cells, complete media): 0.8125 | Difference [1, 14]: −0.34 | Cholesterol-free media + simvastatin (0.04 μM) [2, 24]: 1.337 | Complete Media [2, 25]: 1.292 | Difference [2, 20]: −0.04

OCC(S)CS (stereo not drawn) [Dimercaprol]
Difference [1, 21]: −0.18 | Cholesterol-free [1, 4]: 0.9919 | Complete [1, 5]: 0.8115 | Cholesterol-free media + simvastatin (0.04 μM) [2, 19]: 0.8801 | Complete Media [2, 22]: 1.094 | Difference [2, 23]: 0.21

CC(=O)N[C@@H](CC(C)C)C(=O)O [Acetylleucine]
Difference [1, 21]: −0.09 | Cholesterol-free [1, 4]: 0.9104 | Complete [1, 5]: 0.8206 | Cholesterol-free media + simvastatin (0.04 μM) [2, 24]: 0.8948 | Complete Media [2, 25]: 0.8714 | Difference [2, 20]: −0.02

CC[C@H]1OC(=O)[C@H](C)[C@@H](O[C@H]2C[C@@](C)(OC)[C@@H](O)[C@H](C)O2)[C@H](C)[C@@H](O[C@@H]2O[C@H](C)C[C@H](N(C)C)[C@H]2O)[C@](C)(O)C[C@@H](C)C(=O)[C@H](C)[C@@H](O)[C@]1(C)O [Erythromycin]
Difference [1, 6]: −0.99 | Cholesterol-free [1, 7]: 1.913 | Complete [1, 8]: 0.9269 | Cholesterol-free media + simvastatin (0.04 μM) [2, 15]: 1.202 | Complete Media ([2]; drug in complete media): 0.9929 | Difference [2, 11]: −0.21

CC(C)C[C@H](NC(=O)CNC(=O)c1cc(Cl)ccc1Cl)B(O)O [Ixazomib]
Difference [1, 16]: −0.06 | Cholesterol-free [1, 17]: 0.05045 | Complete [1, 18]: −0.01336 | Cholesterol-free media + simvastatin (0.04 μM) [2, 24]: 0.01223 | Complete Media [2, 25]: −0.009398 | Difference [2, 20]: −0.02

CCN(C(=O)c1c(O)c2c(Cl)cccc2n(C)c1=O)c1ccccc1 [Laquinimod]
Difference [1, 21]: −0.15 | Cholesterol-free [1, 4]: 1.127 | Complete [1, 5]: 0.9797 | Cholesterol-free media + simvastatin (0.04 μM) [2, 24]: 1.3 | Complete Media [2, 25]: 1.306 | Difference [2, 20]: 0.01

C=CCc1ccc(O)c(OC)c1 [Eugenol]
Cholesterol-free [1, 12]: 1.418 | Complete ([1]; NCI-H292 cells, complete media): 1.048 | Difference [1, 14]: −0.37 | Cholesterol-free media + simvastatin (0.04 μM) [2, 19]: 0.8347 | Complete Media [2, 22]: 1.009 | Difference [2, 23]: 0.17

C[C@]12CCC3=C4CCC(=O)C=C4CC[C@H]3[C@@H]1CC[C@@]2(O)CC#N [Dienogest]
Cholesterol-free [1, 12]: 1.387 | Complete ([1]; NCI-H292 cells, complete media): 1.069 | Difference [1, 14]: −0.32 | Cholesterol-free media + simvastatin (0.04 μM) [2, 15]: 0.9182 | Complete Media ([2]; drug in complete media): 0.7086 | Difference [2, 11]: −0.21

CN(C(=O)/C=C/c1ccoc1)[C@@H]1CC[C@@]2(O)[C@H]3Cc4ccc(O)c5c4[C@@]2(CCN3CC2CC2)[C@H]1O5 [Nalfurafine (hydrochloride)]
Difference [1, 3]: −0.29 | Cholesterol-free [1, 12]: 1.222 | Complete ([1]; NCI-H292 cells, complete media): 0.931 | Cholesterol-free media + simvastatin (0.04 μM) [2, 19]: 1.083 | Complete Media [2, 22]: 0.926 | Difference [2, 13]: −0.16
